Laboratory results published in paper PMC9926489, “Chemical Optimization of Selective Pseudomonas aeruginosa LasB Elastase Inhibitors and Their Impact on LasB-Mediated Activation of IL-1β in Cellular and Animal Infection Models” (ACS Infectious Diseases, 2023).
pIC50: −log10 of the molar value. Where two headings read alike, the source gives them in different places.

Experiments:
[1] = biological target: T1, rabbit angiotensin-converting enzyme (ACE) (Oryctolagus cuniculus, UniProt P12822); test: ACE selectivity assay; assay type: biochemical
T1 construct: purchased Sigma
T1 sequence (P12822 34-1310): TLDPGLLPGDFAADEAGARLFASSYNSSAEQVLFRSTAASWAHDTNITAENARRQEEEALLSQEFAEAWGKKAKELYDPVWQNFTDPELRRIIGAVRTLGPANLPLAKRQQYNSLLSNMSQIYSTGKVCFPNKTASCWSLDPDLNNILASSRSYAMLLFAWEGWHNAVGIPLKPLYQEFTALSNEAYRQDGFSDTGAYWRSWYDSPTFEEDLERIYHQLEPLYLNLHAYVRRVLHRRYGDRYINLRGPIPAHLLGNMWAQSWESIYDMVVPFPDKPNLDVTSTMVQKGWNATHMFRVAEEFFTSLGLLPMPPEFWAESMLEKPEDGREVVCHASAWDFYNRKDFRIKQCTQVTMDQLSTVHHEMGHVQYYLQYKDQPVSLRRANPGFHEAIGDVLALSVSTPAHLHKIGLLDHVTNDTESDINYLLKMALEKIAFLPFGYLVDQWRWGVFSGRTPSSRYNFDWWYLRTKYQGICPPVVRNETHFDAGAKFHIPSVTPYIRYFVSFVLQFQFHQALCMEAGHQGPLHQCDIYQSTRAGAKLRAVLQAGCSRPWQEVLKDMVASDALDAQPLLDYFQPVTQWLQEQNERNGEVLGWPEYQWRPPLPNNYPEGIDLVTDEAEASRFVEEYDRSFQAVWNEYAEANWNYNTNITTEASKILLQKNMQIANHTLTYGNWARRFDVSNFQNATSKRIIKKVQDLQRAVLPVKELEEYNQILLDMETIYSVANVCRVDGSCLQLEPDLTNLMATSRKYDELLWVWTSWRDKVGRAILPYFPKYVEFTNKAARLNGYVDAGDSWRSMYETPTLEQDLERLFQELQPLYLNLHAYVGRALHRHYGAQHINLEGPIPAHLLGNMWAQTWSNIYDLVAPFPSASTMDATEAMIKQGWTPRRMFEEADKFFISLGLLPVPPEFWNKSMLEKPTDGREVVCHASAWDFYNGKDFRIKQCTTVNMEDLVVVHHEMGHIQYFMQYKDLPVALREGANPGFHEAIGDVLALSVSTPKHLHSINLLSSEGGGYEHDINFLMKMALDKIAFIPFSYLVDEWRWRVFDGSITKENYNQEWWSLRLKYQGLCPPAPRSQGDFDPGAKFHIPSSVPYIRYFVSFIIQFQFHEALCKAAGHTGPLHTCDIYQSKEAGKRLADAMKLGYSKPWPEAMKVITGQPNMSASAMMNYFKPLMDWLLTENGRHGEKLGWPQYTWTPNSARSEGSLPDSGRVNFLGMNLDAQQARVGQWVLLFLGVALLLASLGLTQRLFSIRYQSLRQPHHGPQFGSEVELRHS
Method: Selectivity of compound inhibition was evaluated against other proteases at concentrations between 0.4 and 200 μM. Activity against rabbit angiotensin-converting enzyme (ACE, Sigma) was assessed using 10 μM fluorogenic substrate Abz-Phe-Arg-Lys(Dnp)-P (Enzo Life Sciences) in 100 mM Tris-HCl pH 7, 50 mM NaCl, 10 μM Zn SO4. Activity against human matrix metalloproteases (MMP)-2 and MMP-9 was assessed in 50 mM HEPES pH 7.5, 10 mM CaCl2, 0.01% Triton X-100 using 4 μM fluorogenic substrate Mca-Pro-Leu-Gly-Leu-Dpa-Ala-Arg-NH2 (Enzo Life Sciences). Activity against MMP-1 and MMP-13 was assessed in 25 mM HEPES pH 7.5, 100 mM NaCl, 100 mM CaCl2, 0.0005% Brij using 7.5 μM fluorogenic substrate Mca-Lys-Pro-Leu-Gly-Leu-Dpa-Ala-Arg-NH2 (Sigma) for MMP-1 and 1.25 μM fluorogenic substrate Mca-Pro-Cha-Gly-Nva-His-Ala-Dpa-NH2 (Millipore) for MMP-13. Activity against human neutrophil elastase (HNE, Enzo Life Sciences) was assessed in 100 mM HEPES pH 7.5, 500 mM NaCl, 0.01% of Triton X-100 using 100 μM fluorogenic substrate MeOSuc-AAPV-AMC (Enzo Life Sciences).

activated IL-1β = test: Mouse P. aeruginosa lung infection model, activated IL-1β in lung homogenates; assay type: in vivo; details: C57Bl/6 mice, 10 and 30 mg/kg IV at 1 and 4 h post-infection, 24 h; p < 0.0001
Method: To investigate if compounds 12 and 16 were able to engage the LasB target in vivo, in the context of a P. aeruginosa lung infection, and to determine the consequences of that inhibition, immunocompetent C57Bl/6 mice were infected intranasally with P. aeruginosa PAO1 and treated with two doses of inhibitors, 10 and 30 mg/kg, administered IV at 1 and 4 h post-infection (Figure 5A). A control group of PAO1-infected animals treated with vehicle and a group of animals infected with the isogenic ΔlasB strain were included in the study. Mice were euthanized 24 h post-infection and their lung homogenates assayed for activated mature IL-1β (using the IL-1 reporter assay) and bacterial numbers (by CFU enumeration).
Infection experiments were approved by the Institutional Animal Care and Use Committee of Emory University. To prepare the bacterial inoculum, P. aeruginosa PAO1 (or its ΔlasB derivative) was grown in Luria broth with shaking at physiologic (37 °C) temperature for 18 h to maximally express LasB (at late log phase). […] Active IL-1β was quantified by adding 100 μL of cell-free homogenate to IL-1β responsive HEK IL-1R-lux reporter cells. Activity was assayed by luminescence measured with D-luciferin substrate (Steady-Luc, Biotium) on a multimode reader (PerkinElmer) and expressed as relative luminescence units (RU). […] Statistics were calculated by ANOVA with a Dunnett post-test.

Row | SMILES | pIC50 ([1]; rabbit ACE, read-out: selectivity IC50, ACE) | decrease in activated IL-1β in lung homogenates vs PAO1-infected control group (activated IL-1β) | pIC50 [1]
1 | COc1cc2sc(CNC(=O)C3(CC(=O)O)Cc4ccccc4C3)nc2cc1OCCC[N+](C)(C)C [Compound 12] | < 3.70 | up to 4 fold | 
2 | COc1cc2sc(CNC(=O)C3(CC(=O)O)Cc4cc(F)c(F)cc4C3)nc2cc1OCCC[N+](C)(CCO)CCO [Compound 16] |  | up to 4 fold | < 3.70
